Here are results for 25 compounds from patent publication US20230089073A1 (Carmot Therapeutics, Inc., priority 2021, published 2023).

T1 sequence (P43220 24-463): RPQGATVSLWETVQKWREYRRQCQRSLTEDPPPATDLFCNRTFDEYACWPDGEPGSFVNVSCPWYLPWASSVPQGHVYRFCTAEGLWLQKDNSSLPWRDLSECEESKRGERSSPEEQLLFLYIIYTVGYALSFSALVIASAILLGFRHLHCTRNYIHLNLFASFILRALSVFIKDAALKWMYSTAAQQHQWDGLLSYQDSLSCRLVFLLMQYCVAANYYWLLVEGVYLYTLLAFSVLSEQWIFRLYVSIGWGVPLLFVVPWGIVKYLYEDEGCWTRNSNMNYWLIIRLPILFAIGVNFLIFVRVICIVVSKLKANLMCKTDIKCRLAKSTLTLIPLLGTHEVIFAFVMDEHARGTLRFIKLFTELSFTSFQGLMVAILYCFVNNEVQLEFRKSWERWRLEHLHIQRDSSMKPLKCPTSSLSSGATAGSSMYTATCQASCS

This assay addresses T1, human GLP-1 receptor (Homo sapiens, UniProt P43220).
T1 construct: expressed in transfected cells
As to the kind of experiment: GLP-1R cAMP Assay. It is filed as cell-based. The following applies: cAMP accumulation in CHO cells stably overexpressing the human GLP-1 receptor; 30 min treatment; HitHunter cAMP kit; read-out: EC50. A digest of the protocol: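 CHO cells stably overexpressing human GLP-1R, 10,000 cells/well, treated with compound in 20-point dose response in triplicate for 30 min. cAMP accumulation read by enzyme-complementation luminescence after lysis and overnight incubation; dose-response curves fitted.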
As usually defined, the EC50 is the midpoint of the concentration-response curve. Regarding `N#Cc1cc(Cl)ccc1OCc1cc(OC2CCN(Cc3nc4ccc(C(=O)O)cc4n3Cc3ccno3)CC2)ccn1` [Compound 241, 2-{[4-({2-[(4-chloro-2-cyanophenoxy)methyl]pyridin-4-yl}oxy)piperidin-1-yl]methyl}-1-[(1,2-oxazol-5-yl)methyl]-1H-1,3-benzodiazole-6-carboxylic acid], the half-maximal effective concentration (EC50) was less than 0.05 µM. In the case of `O=C(O)c1ccc2nc(CN3CCC(Oc4cccc(COc5cc(Cl)cc(Cl)c5)c4)CC3)n(C[C@@H]3CCO3)c2c1` [Compound 242, 2-[(4-{3-[(3,5-dichlorophenoxy)methyl]phenoxy}piperidin-1-yl)methyl]-1-{[(2S)-oxetan-2-yl]methyl}-1H-1,3-benzodiazole-6-carboxylic acid] it was less than 0.05 µM; in that of `O=C(O)c1ccc2nc(CN3CCC(Oc4cccc(COc5cccc(Cl)c5Cl)c4)CC3)n(C[C@@H]3CCO3)c2c1` [Compound 243, 2-[(4-{3-[(2,3-dichlorophenoxy)methyl]phenoxy}piperidin-1-yl)methyl]-1-{[(2S)-oxetan-2-yl]methyl}-1H-1,3-benzodiazole-6-carboxylic acid], less than 0.05 µM; in that of `CCn1cncc1Cn1c(CN2CCC(Oc3cccc(COc4ccc(Cl)cc4C#N)n3)CC2)nc2ccc(C(=O)O)cc21` [Compound 246, 2-{[4-({6-[(4-chloro-2-cyanophenoxy)methyl]pyridin-2-yl}oxy)piperidin-1-yl]methyl}-1-[(1-ethyl-1H-imidazol-5-yl)methyl]-1H-1,3-benzodiazole-6-carboxylic acid], less than 0.05 µM. In the case of `CCn1cncc1Cn1c(CN2CCC(Oc3cccc(COc4ccc(Cl)cc4F)n3)CC2)nc2ccc(C(=O)O)cc21` [Compound 247, 2-{[4-({6-[(4-chloro-2-fluorophenoxy)methyl]pyridin-2-yl}oxy)piperidin-1-yl]methyl}-1-[(1-ethyl-1H-imidazol-5-yl)methyl]-1H-1,3-benzodiazole-6-carboxylic acid] it was less than 0.05 µM; in that of `N#Cc1cc(Cl)ccc1OCc1cccc(OC2CCN(Cc3nc4ccc(C(=O)O)cc4n3C[C@@H]3CCO3)CC2)n1` [Compound 248, 2-{[4-({6-[(4-chloro-2-cyanophenoxy)methyl]pyridin-2-yl}oxy)piperidin-1-yl]methyl}-1-{[(2S)-oxetan-2-yl]methyl}-1H-1,3-benzodiazole-6-carboxylic acid], 0.05 to 0.5 µM; in that of `O=C(O)c1ccc2nc(CN3CCC(Oc4cccc(COc5ccc(Cl)cc5F)n4)CC3)n(C[C@@H]3CCO3)c2c1` [Compound 249, 2-{[4-({6-[(4-chloro-2-fluorophenoxy)methyl]pyridin-2-yl}oxy)piperidin-1-yl]methyl}-1-{[(2S)-oxetan-2-yl]methyl}-1H-1,3-benzodiazole-6-carboxylic acid], less than 0.05 µM. Regarding `O=C(O)c1ccc2nc(CN3CCC(Oc4ccnc(COc5ccc(Cl)cc5F)c4)CC3)n(C[C@@H]3CCO3)c2c1` [Compound 250, 2-{[4-({2-[(4-chloro-2-fluorophenoxy)methyl]pyridin-4-yl}oxy)piperidin-1-yl]methyl}-1-{[(2S)-oxetan-2-yl]methyl}-1H-1,3-benzodiazole-6-carboxylic acid], the EC50 is less than 0.05 µM. Under `N#Cc1cc(Cl)ccc1OCc1cccc(OC2CCN(Cc3nc4ccc(C(=O)O)cc4n3Cc3ncco3)CC2)n1` [Compound 251, 2-{[4-({6-[(4-chloro-cyanophenoxy)methyl]pyridin-2-yl}oxy)piperidin-1-yl]methyl}-1-[(1,3-oxazol-2-yl)methyl]-1H-1,3-benzodiazole-6-carboxylic acid] stands greater than 0.5 µM; under `N#Cc1cc(Cl)ccc1OCc1cccc(OC2CCN(Cc3nc4ccc(C(=O)O)cc4n3Cc3cnco3)CC2)n1` [Compound 252, 2-{[4-({6-[(4-chloro-2-cyanophenoxy)methyl]pyridin-2-yl}oxy)piperidin-1-yl]methyl}-1-[(1,3-oxazol-5-yl)methyl]-1H-1,3-benzodiazole-6-carboxylic acid], greater than 0.5 µM. In the case of `N#Cc1cc(Cl)ccc1OCc1cccc(OC2CCN(Cc3nc4ccc(C(=O)O)cc4n3Cc3ccno3)CC2)n1` [Compound 253, 2-{[4-({6-[(4-chloro-2-cyanophenoxy)methyl]pyridin-2-yl}oxy)piperidin-1-yl]methyl}-1-[(1,2-oxazol-5-yl)methyl]-1H-1,3-benzodiazole-6-carboxylic acid] it was greater than 0.5 µM; in that of `C[C@H]1C[C@H](Oc2cccc(COc3ccc(Cl)cc3Cl)c2)CCN1Cc1nc2ccc(C(=O)O)cc2n1C[C@@H]1CCO1` [Compound 254, 2-{[(2S,4R)-4-{3-[(2,4-dichlorophenoxy)methyl]phenoxy}-2-methylpiperidin-1-yl]methyl}-1-{[(2S)-oxetan-2-yl]methyl}-1H-1,3-benzodiazole-6-carboxylic acid], less than 0.05 µM; in that of `Cn1cncc1Cn1c(CN2CCC(Oc3cccc(COc4ccc(Cl)cc4Cl)c3)CC2)nc2ccc(C(=O)O)cc21` [Compound 255, 2-[(4-{3-[(2,4-dichlorophenoxy)methyl]phenoxy}piperidin-1-yl)methyl]-1-[(1-methyl-1H-imidazol-5-yl)methyl]-1H-1,3-benzodiazole-6-carboxylic acid], less than 0.05 µM.

On to `CCn1cncc1Cn1c(CN2CCN(C(=O)c3cnc(COc4ccc(Cl)cc4Cl)o3)C[C@@H]2C)nc2ccc(C(=O)O)cc21` [Compound 256, 2-{[(2S)-4-{2-[(2,4-dichlorophenoxy)methyl]-1,3-oxazole-5-carbonyl}-2-methylpiperazin-1-yl]methyl}-1-[(1-ethyl-1H-imidazol-5-yl)methyl]-1H-1,3-benzodiazole-6-carboxylic acid], for which the half-maximal effective concentration (EC50) is less than 0.05 µM. In the case of `O=C(O)c1ccc2nc(CN3CCC(Oc4ccnc(COc5ccc(Cl)cc5Cl)c4)CC3)n(Cc3ccno3)c2c1` [Compound 257, 2-{[4-({2-[(2,4-dichlorophenoxy)methyl]pyridin-4-yl}oxy)piperidin-1-yl]methyl}-1-[(1,2-oxazol-5-yl)methyl]-1H-1,3-benzodiazole-6-carboxylic acid] it was less than 0.05 µM. Under `O=C(O)c1ccc2nc(CN3CCC(Oc4ccnc(COc5ccc(Cl)cc5F)c4)CC3)n(Cc3ncco3)c2c1` [Compound 258, 2-{[4-({2-[(4-chloro-2-fluorophenoxy)methyl]pyridin-4-yl}oxy)piperidin-1-yl]methyl}-1-[(1,3-oxazol-2-yl)methyl]-1H-1,3-benzodiazole-6-carboxylic acid] stands less than 0.05 µM. In the case of `Cn1cncc1Cn1c(CN2CCC(Oc3ccnc(COc4ccc(Cl)cc4C#N)c3)CC2)nc2ccc(C(=O)O)cc21` [Compound 259, 2-{[4-({2-[(4-chloro-2-cyanophenoxy)methyl]pyridin-4-yl}oxy)piperidin-1-yl]methyl}-1-[(1-methyl-1H-imidazol-5-yl)methyl]-1H-1,3-benzodiazole-6-carboxylic acid] it was less than 0.05 µM.

For the compound `Cn1cncc1Cn1c(CN2CCC(Oc3cccc(COc4ccc(Cl)cc4F)n3)CC2)nc2ccc(C(=O)O)cc21` [Compound 264, 2-{[4-({6-[(4-chloro-2-fluorophenoxy)methyl]pyridin-2-yl}oxy)piperidin-1-yl]methyl}-1-[(1-methyl-1H-imidazol-5-yl)methyl]-1H-1,3-benzodiazole-6-carboxylic acid], the EC50 is less than 0.05 µM. As for `O=C(O)c1ccc2nc(CN3CCC(Oc4ccnc(COc5ccc(Cl)cc5F)c4)CC3)n(Cc3cnco3)c2c1` [Compound 265, 2-{[4-({2-[(4-chloro-2-fluorophenoxy)methyl]pyridin-4-yl}oxy)piperidin-1-yl]methyl}-1-[(1,3-oxazol-5-yl)methyl]-1H-1,3-benzodiazole-6-carboxylic acid], the 50% effective concentration (EC50) was less than 0.05 µM. Under `O=C(O)c1ccc2nc(CN3CCC(Oc4ccnc(COc5ccc(Cl)cc5F)c4)CC3)n(Cc3ccno3)c2c1` [Compound 266, 2-{[4-({2-[(4-chloro-2-fluorophenoxy)methyl]pyridin-4-yl}oxy)piperidin-1-yl]methyl}-1-[(1,2-oxazol-5-yl)methyl]-1H-1,3-benzodiazole-6-carboxylic acid] stands less than 0.05 µM.

Regarding `Cn1cncc1Cn1c(CN2CCC(Oc3ccnc(COc4ccc(Cl)cc4F)c3)CC2)nc2ccc(C(=O)O)cc21` [Compound 267, 2-{[4-({2-[(4-chloro-2-fluorophenoxy)methyl]pyridin-4-yl}oxy)piperidin-1-yl]methyl}-1-[(1-methyl-1H-imidazol-5-yl)methyl]-1H-1,3-benzodiazole-6-carboxylic acid], the EC50 is less than 0.05 µM. On to `O=C(O)c1ccc2nc(CN3CCC(Oc4cccc(COc5ccc(Cl)cc5F)n4)CC3)n(Cc3ncco3)c2c1` [Compound 268, 2-{[4-({6-[(4-chloro-2-fluorophenoxy)methyl]pyridin-2-yl}oxy)piperidin-1-yl]methyl}-1-[(1,3-oxazol-2-yl)methyl]-1H-1,3-benzodiazole-6-carboxylic acid], for which the EC50 is less than 0.05 µM. In the case of `O=C(O)c1ccc2nc(CN3CCC(Oc4cccc(COc5ccc(Cl)cc5F)n4)CC3)n(Cc3cnco3)c2c1` [Compound 269, 2-{[4-({6-[(4-chloro-2-fluorophenoxy)methyl]pyridin-2-yl}oxy)piperidin-1-yl]methyl}-1-[(1,3-oxazol-5-yl)methyl]-1H-1,3-benzodiazole-6-carboxylic acid] it was less than 0.05 µM.

On to `O=C(O)c1ccc2nc(CN3CCC(Oc4cccc(COc5ccc(Cl)cc5F)n4)CC3)n(Cc3ccno3)c2c1` [Compound 270, 2-{[4-({6-[(4-chloro-2-fluorophenoxy)methyl]pyridin-2-yl}oxy)piperidin-1-yl]methyl}-1-[(1,2-oxazol-5-yl)methyl]-1H-1,3-benzodiazole-6-carboxylic acid], for which the EC50 was less than 0.05 µM. Under `CCn1cncc1Cn1c(CN2CCC(Oc3ccccc3COc3ccc(Cl)cc3Cl)CC2)nc2ccc(C(=O)O)cc21` [Compound 272, 2-[(4-{2-[(2,4-dichlorophenoxy)methyl]phenoxy}piperidin-1-yl)methyl]-1-[(1-ethyl-1H-imidazol-5-yl)methyl]-1H-1,3-benzodiazole-6-carboxylic acid] stands 0.05 to 0.5 µM.
